Values quoted from earlier work, collected in US7375097B2, “Increasing ATP availability by inhibition of creatine kinase (CK) leakage resulting from high-intensity exercise” (Aplodan Formulations Ltd., priority 2006, dated 2008).
Like-named read-outs stand apart in the source and are kept apart here.

Key:
[1] = in vivo
[2] = tested on: patients with inadequate coronary blood flow
[3] = tested on: skeletal muscle performance; conditions: clinical trials
hand-grip strength = conditions: unaffected in the placebo group
[4] = tested on: serum CK levels increased by isoprenaline; conditions: rats; CK increased by administration of isoprenaline
[5] = in vivo; remark: listed apart in the source
[6] = tested on: leakage of CK in acute myocardial infarction; conditions: human patients suffering from acute myocardial infarction
[7] = oral administration, test animals, up to about, at 48 hours
[8] = alkaline and acidic solutions
[9] = in vitro
[10] = tested on: models of myocardial infarction

absorption by the intestine [7]: about 60% | dephosphorylation to creatine ([9]; blood and muscle): less so
Compound: CN(CCOP(=O)(O)O)C(=N)N [2-(carbamimidoyl-methyl-amino)ethoxyphosphonic acid]
tolerability / side effects [1]: well tolerated and without side effects | cardiac parameters [2]: improve cardiac parameters | capacity to perform physical activity [3]: increase the capacity to perform physical activity | muscular development [3]: improve muscular development | hand-grip strength (hand-grip strength): hand-grip strength was improved | muscular performance (elderly subjects): improved muscular performance | serum CK levels [4]: reduce serum CK levels | cardioprotection [5]: afford cardioprotection | leakage of CK and several other enzymes [6]: reduce the leakage of CK as well as several other enzymes | stability in solution [8]: stable in both alkaline and acidic solutions | dephosphorylation to creatine ([9]; kidney, intestine and liver): dephosphorylated to creatine to some degree | protection against cellular necrosis [10]: protective against cellular necrosis
